Test results: US20260176289A1, “SMALL MOLECULE INHIBITORS OF KRAS PROTEINS” (Merck Sharp & Dohme LLC, priority 2022, published 2026)
pIC50: −log10 of the molar value. Where two headings read alike, the source gives them in different places.

Experiments:
[1] = molecular target: KRAS-WT (Homo sapiens, UniProt P01116); experiment: SOS-catalyzed nucleotide exchange assay (Procedure A, TR-FRET), KRAS-WT; type: biochemical
Outline: (§1)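 Inhibitors stabilizing the Bodipy-GDP state are detected as retained TR-FRET from a preformed biotinylated RAS/Tb-streptavidin complex. They are preincubated 60 min at room temperature, then human SOS and 3 mM GTP are added. G12V runs 90 min at 1.25 nM RAS/160 nM SOS. G12C (3 nM), WT (1 nM) and NRAS (1.25 nM) run 60 min with 40 nM SOS.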

[2] = molecular target: KRAS-G12D (Homo sapiens, UniProt P01116, G12D); experiment: SOS-catalyzed nucleotide exchange assay (Procedure A, TR-FRET), KRAS-G12D; type: biochemical
Outline: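 Signal ratio (520/495 nm, excitation 340 nm) reports Bodipy-GDP retention on biotinylated RAS after SOS-catalyzed exchange with 3 mM GTP. SOS was 40 nM, except 160 nM for G12V. Room-temperature exchange lasted 60 min (90 min for G12V), following a 60 min compound preincubation.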

[3] = system: SW620 cells; experiment: Cellular phospho-ERK assay, SW620 cells (homozygous KRAS-G12V); type: cell-based; conditions: Homo sapiens, read-out: SW620 pERK IC50
Method: (§2) Procedure for Cellular Phospho-ERK Assay in KRAS Wild Type and Mutant (G12D, G12V) Cell Lines
(§3) MKN-1 cells (JCRB JCRB0252) containing amplified wild-type KRAS, were cultured in growth medium that contains RPMI 1640-GlutaMAX™-I (ThermoFisher Scientific 61870) containing 10% heat inactivated fetal bovine serum (ThermoFisher Scientific 10091148), 1 mM sodium pyruvate and 10 mM HEPES. PANC08.13 cells (ATCC® CRL-2551™), containing homozygous KRAS-G12D activating mutation, were cultured in growth medium made of RPMI1640-GlutaMAX™-I (ThermoFisher Scientific 61870) containing 15% heat inactivated fetal bovine serum (ThermoFisher Scientific 10091148)). AsPC-1 cells (ATCC® CRL-1682™), containing homozygous KRAS-G12D activating mutation, were cultured in T150 flask in growth medium (RPMI medium 1640-GlutaMAX™-I (ThermoFisher Scientific 61870) containing 10% fetal bovine serum (ThermoFisher Scientific 10091148)). SW620 cells (ATCC® […]), containing homozygous KRAS-G12V activating mutation, were cultured in growth medium that contains RPMI 1640-GlutaMAX™-I (ThermoFisher Scientific 61870) containing 10% heat inactivated fetal bovine serum (ThermoFisher Scientific 10091148).
(§4) Cells for the assay were harvested in growth medium after TrypLE (ThermoFisher scientific 12604021) digestion and were seeded in a 384-well collagen coated cell culture plate (Corning 356702) at a density of 10,000-15,000 cells/20 μL/well, and incubated at 37° C., 5% CO2 overnight. The compound (with 10 mM stock concentration) dose-response titrations were prepared [30 μM final ERK detection assay concentration and 1:3 dilutions, 10-point dose response] and appropriate amounts (270 nL) of test compounds were dispensed in a 384-well intermediate plate using an Echo 550 liquid handler. 30 μL/well of RPMI medium 1640-GlutaMAX™—I was added to the intermediate plate and the contents of the intermediate plate (10 μL/well) were then transferred to the 384-well collagen coated cell culture plate, which was incubated at 37° C., 5% CO2 for 2 hours. After removal of medium from the collagen coated cell culture plate, cells were lysed in lysis buffer from Alpha SureFire® Ultra™ Multiplex p-ERK and total ERK assay kit (PerkinElmer MPSU-PTERK) containing Halt™ Protease and Phosphatase inhibitor cocktail (ThermoFisher Scientific 78446) at room temperature with constant shaking at 300 rpm for 30 minutes. The cell lysates were then transferred to an OptiPlate-384 plate (PerkinElmer 6005620), and the phosphorylation of ERK (p-ERK) and total ERK levels were detected by Alpha SureFire® Ultra™ Multiplex p-EEK kit and total ERK assay kit (PerkinElmer MPSU-PTERK) following the manufacturer's protocol. Assay plates were read on a En Vision Multimode Plate Reader (PerkinElmer), and the ratio of p-ERK vs. total ERK in each well was used as the final readout. Dose response curves were analyzed using a 4-parameter logistic model to calculate IC50 values using Spotfire software.

[4] = system: AsPC-1 cells; experiment: Cellular phospho-ERK assay, AsPC-1 cells (homozygous KRAS-G12D); type: cell-based; conditions: Homo sapiens, read-out: AsPC1 pERK IC50
Outline: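 Overnight-plated cells on collagen received test compound (up to 30 μM final, threefold steps, ten concentrations) for two hours. After lysis at room temperature, phosphorylated and total ERK were quantified together by Alpha SureFire, and IC50 is based on the phospho-to-total signal ratio.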

[5] = system: MKN-1 cells; experiment: Cellular phospho-ERK assay, MKN-1 cells (amplified wild-type KRAS); type: cell-based; conditions: Homo sapiens, read-out: MKN1 pERK IC50
Method: as §2, §3, §4

[6] = molecular target: KRAS-G12V (Homo sapiens, UniProt P01116, G12V); experiment: SOS-catalyzed nucleotide exchange assay (Procedure A, TR-FRET), KRAS-G12V; type: biochemical
Outline: as §1

[7] = amplified wild-type KRAS, 2 hours
[8] = nucleotide exchange, read-out: KRAS WT GNE IC50
[9] = nucleotide exchange, read-out: KRAS G12D GNE IC50
[10] = nucleotide exchange, read-out: KRAS G12V GNE IC50
[11] = SW-620, 2 hours compound incubation
[12] = ASPC1, 2 h, 2 hours compound incubation

Chain of KRAS-G12D (P01116 with tags, fused parts or gaps isoform P01116-2 G12D): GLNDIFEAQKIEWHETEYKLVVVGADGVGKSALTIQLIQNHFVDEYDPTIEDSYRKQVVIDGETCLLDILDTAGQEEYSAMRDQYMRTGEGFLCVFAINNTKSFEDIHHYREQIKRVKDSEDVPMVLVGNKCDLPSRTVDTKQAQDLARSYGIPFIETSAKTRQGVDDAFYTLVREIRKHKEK
Chain of KRAS-WT (P01116 with tags, fused parts or gaps isoform P01116-2): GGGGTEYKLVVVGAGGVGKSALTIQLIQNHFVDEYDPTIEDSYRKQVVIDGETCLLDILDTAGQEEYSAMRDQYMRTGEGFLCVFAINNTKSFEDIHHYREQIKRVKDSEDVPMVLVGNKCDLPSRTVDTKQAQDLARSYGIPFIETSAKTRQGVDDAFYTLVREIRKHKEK
Chain of KRAS-G12V (P01116 with tags, fused parts or gaps isoform P01116-2 G12V): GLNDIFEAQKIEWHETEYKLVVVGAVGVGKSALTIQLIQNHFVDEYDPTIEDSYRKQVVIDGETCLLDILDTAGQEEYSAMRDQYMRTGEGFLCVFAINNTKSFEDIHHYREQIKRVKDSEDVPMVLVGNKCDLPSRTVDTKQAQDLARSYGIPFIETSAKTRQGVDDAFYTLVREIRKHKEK

SMILES	pIC50 ([1]; KRAS WT GNE IC50, nucleotide exchange)	pIC50 ([2]; KRAS G12D GNE IC50, nucleotide exchange)	pIC50 ([3]; SW-620, KRAS-G12V, 2 hours)	pIC50 ([4]; ASPC1, KRAS-G12D, 2 hours)	pIC50 [5, 7]	pIC50 ([6]; KRAS G12V GNE IC50, nucleotide exchange)	pIC50 [1, 8]	pIC50 [2, 9]	pIC50 ([4]; ASPC1, 2 h, KRAS-G12D, 2 hours)	pIC50 [6, 10]	pIC50 [3, 11]	pIC50 [4, 12]	pIC50 ([5]; 2 hours compound incubation)
C[C@@]1(O)COCCN(c2nc(OC[C@@]34CCCN3C[C@H](F)C4)nc3[se]c4c(-c5c(C6CC6)c(Cl)cc6[nH]ncc56)nccc4c23)C1 [Ex-289, (6S)-4-(8-(6-chloro-5-cyclopropyl-1H-indazol-4-yl)-2-(((2R,7aS)-2-fluorotetrahydro-1H-pyrrolizin-7a(5H)-yl)methoxy)pyri-do[4′,3′:4,5]seleno-pheno[2,3-d]pyrimidin-4-yl)-6-methyl-1,4-oxazepan-6-ol]	7.65	8.16	7.19	6.99	7.09	7.57							
Cn1c2nc(OC[C@@]34CCCN3C[C@H](F)C4)nc(N3CCOC[C@@](C)(O)C3)c2c2ccnc(-c3c(C4(F)CC4)c(Cl)cc4[nH]ncc34)c21 (single isomer, unassigned) [Ex-3]			7.02		6.87		7.76	7.98	6.68	7.81			
CCC1(O)COCCN(c2nc(OC[C@@]34CCCN3C[C@H](F)C4)nc3sc4c(-c5c(C(F)(F)F)c(C)cc6[nH]ncc56)nccc4c23)C1 (stereo partly drawn) [Ex-201, 6-ethyl-4-(2-(((2R,7aS)-2-fluorotetrahydro-1H-pyr-rolizin-7a(5H)-yl)meth-oxy)-8-(6-methyl-5-(tri-fluoromethyl)-1H-indazol-4-yl)pyrido[4′,3′:4,5]thieno[2,3-d]pyrimidin-4-yl)-1,4-oxazepan-6-ol]							6.39	6.55		6.69	6.66	6.03	6.43
CC(C)(C)c1c(Cl)cc2[nH]ncc2c1-c1nccc2c1sc1nc(OC[C@@]34CCCN3C[C@H](F)C4)nc(N3CCOC[C@@](C)(O)C3)c12 [Ex-156, (6S)-4-(8-(5-(tert-butyl)-6-chloro-1H-indazol-4-yl)-2-(((2R,7aS)-2-fluorotetrahydro-1H-pyrrolizin-7a(5H)-yl)methoxy)pyrido[4′,3′:4,5]thieno[2,3-d]pyrimidin-4-yl)-6-methyl-1,4-oxazepan-6-ol]							7.72	8.28		7.78	7.34	7.12	6.95
C[C@@]1(O)COCCN(c2nc(OC[C@@]34CCCN3C[C@H](F)C4)nc3sc4c(-c5c6c(cc7[nH]ncc57)CCC65CC5)nccc4c23)C1 [Ex-88, (6S)-4-(8-(6,7-dihydro-1H-spiro[cyclopenta[f]indazole-5,1′-cyclopropan]-4-yl)-2-(((2R,7aS)-2-fluorotetrahydro-1H-pyrrolizin-7a(5H)-yl)methoxy)pyrido[4′,3′:4,5]thi-eno[2,3-d]pyrimidin-4-yl)-6-methyl-1,4-oxazepan-6-ol]			7.44		6.92		7.43	7.73	6.80	7.37			
C[C@@]1(O)COCCN(c2nc(OC[C@@]34CCCN3C[C@H](F)C4)nc3sc4c(-c5c6cn[nH]c6cc6cccc(Cl)c56)nccc4c23)C1 [Ex-161, (6S)-4-(8-(5-chloro-1H-benzo[f]indazol-4-yl)-2-(((2R,7aS)-2-fluorotetrahydro-1H-pyrrolizin-7a(5H)-yl)methoxy)pyrido[4′,3′:4,5]thieno[2,3-d]pyrimidin-4-yl)-6-methyl-1,4-oxazepan-6-ol]							7.82	8.22		7.94	7.49	7.21	7.55
Cc1cc2[nH]ncc2c(-c2nccc3c2sc2nc(OC[C@@]45CCCN4C[C@H](F)C5)nc(N4CCOC[C@]5(CCO5)C4)c23)c1C(F)(F)F [Ex-198, (4S)-9-(2-(((2R,7aS)-2-fluorotetrahydro-1H-pyr-rolizin-7a(5H)-yl)meth-oxy)-8-(6-methyl-5-(tri-fluoromethyl)-1H-indazol-4-yl)pyrido[4′,3′:4,5]thieno[2,3-d]pyrimidin-4-yl)-1,6-dioxa-9-azaspiro [3.6]decane]							6.88	7.44		7.47	7.13	6.85	6.92
C[C@@]1(O)COCCN(c2nc(OC[C@]3(CN4CCC5(CC5)C4)CC3(F)F)nc3sc4c(-c5c(C6(F)CC6)c(Cl)cc6[nH]ncc56)nccc4c23)C1 [Ex-262, (6S)-4-(2-(((R)-1-((5-azaspiro[2.4]heptan-5-yl)methyl)-2,2-difluorocyclopropyl)methoxy)-8-(6-chloro-5-(1-fluorocyclopropyl)-1H-indazol-4-yl)pyrido[4′,3′:4,5]thieno[2,3-d]pyrimidin-4-yl)-6-methyl-1,4-oxazepan-6-ol]							7.65	8.35		7.57	7.18	6.93	7.28
C[C@@]1(O)COCCN(c2nc(OC[C@@]34CCCN3C[C@H](F)C4)nc3c(Cl)c4c(-c5c(C6CC6)c(Cl)cc6[nH]ncc56)nccn4c23)C1 (single isomer, unassigned) [Ex-300]			7.40		7.26		7.84	8.19	6.65	8.07			
CCC1c2c(cc3[nH]ncc3c2-c2nccc3c2sc2nc(OC[C@@]45CCCN4C[C@H](F)C5)nc(N4CCOC[C@@](C)(O)C4)c23)CC1(F)F (single isomer, unassigned) [Ex-108]			7.68		7.54		8.51	8.82	7.30	8.27			
C[C@@]1(O)COCCN(c2nc(OC[C@]3(CN4CC5(COC5)C4)CC3(F)F)nc3sc4c(-c5c(C6CC6)c(Cl)cc6[nH]ncc56)nccc4c23)C1 [Ex-213, (6S)-4-(2-(((R)-1-((2-oxa-6-azaspiro [3.3]heptan-6-yl)-methyl)-2,2-difluoro-cyclopropyl)meth-oxy)-8-(6-chloro-5-cyclopropyl-1H-indazol-4-yl)pyrido [4′,3′:4,5]thieno [2,3-d]pyrimidin-4-yl)-6-methyl-1,4-oxazepan-6-ol]							7.91	8.46		7.95	7.37	7.32	7.18
